Data from US10994016B2, “Graphene oxide mediated cellular delivery of gadolinium-labeled molecules” (Northwestern University, priority 2015, dated 2021).
Where “and” joins values, the source holds several entries; their conditions need not be identical. Identical values can stand only once.

Experiments:
[1] = incubation concentration of 100 mM; cited from earlier work
HeLa cells = experiment: Cellular delivery studies with and without GO co-incubation, HeLa; type: cell-based; conditions: for Gd content (fmol/cell): 188 μM Gd(III), 24 h, replicate values; for Gd content (fmol/cell), Outliers: values removed as outliers (Chauvenet's criterion, * experimenter judgment)
Procedure: ICP-MS Samples were prepared in 15-mL conical tubes by adding ACS reagent grade nitric acid (70%), followed by incubation at 70° C. overnight to allow for complete sample digestion. The effectiveness of this digestion protocol was previously validated for GO. After incubation, a multi-element internal standard (containing Bi, Ho, In, Li, Sc, Tb, and Y, Inorganic Ventures, Christiansburg, Va.) and milli-Q water (18.2 MΩ·cm) were added to produce a final sample of 3% (v/v) nitric acid and 5 ng/mL internal standard.
ICP-MS was performed on a computer-controlled (Plasmalab software) Thermo X series II ICP-MS (Thermo Fisher Scientific, Waltham, Mass., USA) operating in standard mode equipped with an ESI SC-2 autosampler (Omaha, Nebr., USA). Each sample was acquired using 1 survey run (10 sweeps) and 3 main (peak jumping) runs (100 sweeps). The isotopes selected for analysis were Gd with In and Ho isotopes selected as internal standards for data interpolation. Instrument performance is optimized daily through an autotune followed by verification via a performance report (passing manufacturer specifications). Instrument calibration was accomplished by preparing individual-element Gd standards (Inorganic Ventures, Christiansburg, Va., USA) using concentrations of 0.78125, 1.5625, 3.125, 6.25, 12.50, 25.00, 50.00, 100.0, and 200.0 ng/mL containing 3.0% nitric acid (v/v) and 5.0 ng/mL of multi-element internal standard.
Dulbecco's modified phosphate buffered saline (DPBS), media, and dissociation reagents were purchased from Life Technologies (Carlsbad, Calif.). CorningBrand® cell culture consumables (flasks, plates, etc.) and sera were purchased from VWR Scientific (Radnor, Pa.). HeLa cells (ATCC® CCL-2™) and KB cells (ATCC® CCL-17™) were purchased from the American Type Culture Collection (ATCC, Manassas, Va.) and cultured in phenol red-free minimum essential media (MEM) supplemented with 10% fetal bovine serum (FBS). Prior to all experiments, cells were plated and allowed to incubate for 24 hours before dosing. Cells were harvested with 0.25% TrypLE for 5 minutes at 37° C. in a 5.0% CO2 incubator. For sterilization, all Gd(III)-labeled molecules were filtered with 0.2 μm sterile filters prior to concentration determination and storage at 4° C. GO was used as prepared without further sterilization. […] Cells were grown in a humidified incubator operating at 37° C. and 5.0% CO2.
Cell counting was conducted using a Guava EasyCyte Mini Personal Cell Analyzer (EMD Millipore, Billerica, Mass.). After cell harvesting, an aliquot (50 μL) of the cell suspensions was mixed with Guava ViaCount reagent (150 μL) and allowed to stain at room temperature for at least 5 minutes. The dilution factor of 4 was determined based upon optimum machine performance (20-150 cells/μL). After vortexing for 10 sec, stained cells were counted using a Guava EasyCyte Mini Personal Cell Analyzer (PCA) using the ViaCount software module. For each sample, 1000 events were acquired. Gating of live/dead and cell/debris classifications were performed manually by the operator.
Cellular delivery studies were performed with HeLa and KB cells. HeLa and KB were plated at a cell density of approximately 25,000 and 50,000 cells per well, respectively, in a 24-well plate as counted by a hemocytometer. Stock solutions of 1-14 (1 mM), 150 nm GO (100 μg/mL), and 1500 nm GO (100 μg/mL) were prepared using sterile Milli-Q water. Prior to dosing, 80 μL ([…]) of each GO (150 nm and 1500 nm) and 80 μL (80 nmol) of each Gd(III)-labeled molecule (1-14) were mixed and allowed to adsorb for at least 15 minutes. 150 μL Gd(III)-GO solutions were added to 250 μL media to give a final concentration of 188 μM Gd and 18.8 μg/mL GO. Cells were incubated with the mixture of Gd(III)-labeled molecules and GO for […]. To harvest, cells were rinsed in-plate three times with 500 μL PBS and trypsinized using 100 μL 0.25% TrypLE. […]

[2] = Octanol-water partition coefficients; type: physicochemical; conditions: errors show SEM; Gd in each layer by ICP-MS
Procedure: Approximately 1 mg of each compound was dissolved in 1 mL of a 1:1 mixture of water/1-octanol. After shaking the sample tube vigorously for 30 s, the tube was placed on a rotator for gentle mixing over 6 h. The tube was then removed from the rotator and allowed to sit for 12 h to ensure complete separation of the aqueous and organic phases. […] Once separation was complete, 10 μL was removed from each layer to determine the concentration of Gd by ICP-MS. The partition coefficient was calculated from the following equation: log10P=log10(Co/Cw), where log10 P is the logarithm of the partition coefficient, Co is the concentration of Gd in the 1-octanol layer, and Cw is the concentration of Gd in the water layer.

[3] = +150 nm GO co-incubation, 18.8 μg/mL GO
[4] = +1500 nm GO co-incubation, 18.8 μg/mL GO
[5] = molecule alone, without GO, 24-well plate

Row | Structure (SMILES) | Highest cellular labeling reported to date [1] | Gd content (fmol/cell) (HeLa cells; [3]) | Gd content (fmol/cell) (HeLa cells; [4]) | Gd content (fmol/cell) (HeLa cells; [5]) | Water-Octanol LogP [2] | Gd content (fmol/cell), Outliers (HeLa cells; +150 nm GO) | Gd content (fmol/cell), Outliers (HeLa cells; +1500 nm GO) | Gd content (fmol/cell), Outliers (HeLa cells; molecule alone, without GO)
1 | CC(O)CN1CCN(CC(=O)[O-])CCN(CC(=O)[O-])CCN(CC(=O)[O-])CC1.[Gd+3] (stereo not drawn) [Molecule 13, [Gd(HP-DO3A)(H2O)]] | 31 fmol Gd/cell | – | – | – | – | – | – | –
2 | O=C([O-])CN(CCN(CC(=O)[O-])CC(=O)[O-])CCN(CC(=O)[O-])CC(=O)[O-].[Gd+3] [Molecule 11] | – | 2.36 fmol/cell and 2.49 fmol/cell and 4.37 fmol/cell and 4.24 fmol/cell and 5.87 fmol/cell and 2.95 fmol/cell and 2.73 fmol/cell and 2.85 fmol/cell | 5.16 fmol/cell and 5.75 fmol/cell and 4.01 fmol/cell and 3.75 fmol/cell and 3.78 fmol/cell and 3.36 fmol/cell | 0.34 fmol/cell and 0.30 fmol/cell and 0.54 fmol/cell and 0.82 fmol/cell and 0.51 fmol/cell and 0.72 fmol/cell and 0.61 fmol/cell (2×) | −3.80 ± 0.29 | – | – | –
3 | O=C([O-])CN1CCN(CC(=O)[O-])CCN(CC(O)Cn2cc(CCCC(=O)O)nn2)CCN(CC(=O)[O-])CC1.[Gd+3] (stereo not drawn) [Molecule 4] | – | 0.31 fmol/cell and 0.23 fmol/cell (2×) and 0.33 fmol/cell and 0.25 fmol/cell and 0.13 fmol/cell and 0.16 fmol/cell and 0.17 fmol/cell and 0.20 fmol/cell and 0.29 fmol/cell and 0.22 fmol/cell | 0.58 fmol/cell and 0.27 fmol/cell and 0.33 fmol/cell and 0.30 fmol/cell and 0.31 fmol/cell and 0.53 fmol/cell | 0.51 fmol/cell and 0.26 fmol/cell and 0.25 fmol/cell and 0.23 fmol/cell and 0.34 fmol/cell and 0.36 fmol/cell | −3.44 ± 0.28 | 0.66 fmol/cell and 0.76 fmol/cell and 0.62 fmol/cell | 1.00 fmol/cell | 0.76 fmol/cell
